From patent US20250129430A1, “HIGH ATP-AFFINITY PROTEIN AS THERAPEUTIC TARGET FOR INTRACTABLE CANCER MOLECULAR SUBTYPES AND INHIBITOR THEREOF” (VeraVerse Co., Ltd., priority 2021, published 2025)
Where a name gives a salt, the structure may show the parent alone.

Tests used:
Format in all cases: cell-based, human
AGS = assay: Cell viability drug screen, 12-point dose-response AUC; conditions: 72 hours; for Average Area Under the Viability Curve (AUC), AUC norm value: AGS cells (non-SEM subtype)
Method in brief: (§1)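 Luminescent viability readings, taken 15 min after reagent addition at room temperature, were normalized to the 0.5% DMSO control to build 12-point dose-response curves. Trapezoidal integration gave the AUC. Cells had been plated at 5×10^3 per well and then exposed to half-log dilutions for 72 h.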

Hs746T = assay: as above; conditions: 72 hours; for Average Area Under the Viability Curve (AUC), AUC norm value: Hs746T cells (SEM subtype)
Method in brief: as §1

KATO3 = assay: as above; conditions: KATO3 cells, 72 hours
Method in brief: as §1

MKN1 = assay: as above; conditions: MKN1 cells, 72 hours
Method in brief: as §1

MKN28 = assay: as above; conditions: MKN28 cells, 72 hours
Method in brief: as §1

MKN45 = assay: as above; conditions: 72 hours; for Average Area Under the Viability Curve (AUC), AUC norm value: MKN45 cells (non-SEM subtype)
Method in brief: as §1

MKN74 = assay: as above; conditions: MKN74 cells, 72 hours
Method in brief: as §1

NCC19 = assay: as above; conditions: NCC19 cells, 72 hours
Method in brief: as §1

NCC20 = assay: as above; conditions: NCC20 cells, 72 hours
Method in brief: as §1

NCC24 = assay: as above; conditions: NCC24 cells, 72 hours
Method in brief: as §1

NCC59 = assay: as above; conditions: NCC59 cells, 72 hours
Method in brief: as §1

NCI_N87 = assay: as above; conditions: NCI_N87 cells, 72 hours
Method in brief: as §1

OCUM1 = assay: as above; conditions: OCUM1 cells, 72 hours
Method in brief: as §1

SK4 = assay: as above; conditions: 72 hours; for Average Area Under the Viability Curve (AUC), AUC norm value: SK4 cells (SEM subtype)
Method in brief: as §1

SNU16 = assay: as above; conditions: SNU16 cells, 72 hours
Method in brief: as §1

SNU1750 = assay: as above; conditions: 72 hours; for Average Area Under the Viability Curve (AUC), AUC norm value: SNU1750 cells (SEM subtype)
Method in brief: as §1

SNU1967 = assay: as above; conditions: SNU1967 cells, 72 hours
Method in brief: as §1

SNU1 = assay: as above; conditions: SNU1 cells, 72 hours
Method in brief: as §1

SNU216 = assay: as above; conditions: 72 hours; for Average Area Under the Viability Curve (AUC), AUC norm value: SNU216 cells (non-SEM subtype)
Method in brief: as §1

SNU484 = assay: as above; conditions: 72 hours; for Average Area Under the Viability Curve (AUC), AUC norm value: SNU484 cells (SEM subtype)
Method in brief: as §1

SNU601 = assay: as above; conditions: SNU601 cells, 72 hours
Method in brief: as §1

SNU620 = assay: as above; conditions: SNU620 cells, 72 hours
Method in brief: as §1

SNU638 = assay: as above; conditions: SNU638 cells, 72 hours
Method in brief: as §1

SNU668 = assay: as above; conditions: 72 hours; for Average Area Under the Viability Curve (AUC), AUC norm value: SNU668 cells (SEM subtype)
Method in brief: as §1

SNU719 = assay: as above; conditions: SNU719 cells, 72 hours
Method in brief: as §1

YCC11 = assay: as above; conditions: 72 hours; for Average Area Under the Viability Curve (AUC), AUC norm value: YCC11 cells (SEM subtype)
Method in brief: as §1

YCC2 = assay: as above; conditions: YCC2 cells, 72 hours
Method in brief: as §1

YCC3 = assay: as above; conditions: YCC3 cells, 72 hours
Method in brief: as §1

FU97 = assay: as above; parameters: Average Area Under the Viability Curve (AUC), AUC norm value: scale not given here; conditions: FU97 cells, 72 hours
Method in brief: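 Trapezoidal AUC of a 12-point, DMSO-normalized dose-response curve. Luminescent viability was measured after 72 h of exposure at 37° C to half-log serial dilutions (0.5% DMSO control), dosed 24 h after plating FU97 cells at 5×10^3 per well.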

[1] = system: non-SEM-type gastric cancer cell line; assay: Cell viability drug screen, AUC summary over non-SEM-type lines; conditions: in the non-SEM-type gastric cancer cell line

In the case of `COC(=O)Nc1nc2ccc(Sc3ccccc3)cc2[nH]1` [Fenbendazole], the “area under the viability curve (AUC), normalized” value (from here on “area … normalized”) (AGS; AGS cells, 12-point dose-response) is reported as −1.16, the “area … normalized” value (Hs746T; Hs746T cells, 12-point dose-response) is reported as 0.5728 and the “area … normalized” value (KATO3; 12-point dose-response) is reported as 2.344. For the same compound, the “area … normalized” value (MKN1; 12-point dose-response) was −0.0568, the “area … normalized” value (MKN28; 12-point dose-response) was −0.7877 and the “area … normalized” value (MKN45; MKN45 cells, 12-point dose-response) was 1.407. For the same compound, the “area … normalized” value (MKN74; 12-point dose-response) was −0.2802, the “area … normalized” value (NCC19; 12-point dose-response) was −0.2779 and the “area … normalized” value (NCC20; 12-point dose-response) was −0.5211. The “area … normalized” value (NCC24; 12-point dose-response) was −0.8488, the “area … normalized” value (NCC59; 12-point dose-response) was 1.9513 and the “area … normalized” value (NCI_N87; 12-point dose-response) was −1.124. For the same compound, the “area … normalized” value (OCUM1; 12-point dose-response) was 1.283, the “area … normalized” value (SK4; SK4 cells, 12-point dose-response) was −0.2953 and the “area … normalized” value (SNU16; 12-point dose-response) was 1.2297. For the same compound, the “area … normalized” value (SNU1750; SNU1750 cells, 12-point dose-response) was 0.2596, the “area … normalized” value (SNU1967; 12-point dose-response) was 0.184 and the “area … normalized” value (SNU1; 12-point dose-response) was 0.1629. For the same compound, the “area … normalized” value (SNU216; SNU216 cells, 12-point dose-response) was 1.005, the “area … normalized” value (SNU484; SNU484 cells, 12-point dose-response) was −0.08111 and the “area … normalized” value (SNU601; 12-point dose-response) was 0.599. The “area … normalized” value (SNU620; 12-point dose-response) was −1.425, the “area … normalized” value (SNU638; 12-point dose-response) was −0.3689 and the “area … normalized” value (SNU668; SNU668 cells, 12-point dose-response) was 0. The “area … normalized” value (SNU719; 12-point dose-response) was 3.382, the “area … normalized” value (YCC11; YCC11 cells, 12-point dose-response) was −0.7305 and the “area … normalized” value (YCC2; 12-point dose-response) was 0.5695. For the same compound, the “area … normalized” value (YCC3; 12-point dose-response) was 1.376, the “area … normalized” value (FU97; 12-point dose-response) was −1.854 and the AUC value [1] was “high”.
For `c1ccc2c(-c3cnn4cc(-c5ccc(N6CCNCC6)cc5)cnc34)ccnc2c1` [LDN193189], the “Average Area Under the Viability Curve (AUC), AUC norm value” (“Average Area Under the Viability Curve” below) (AGS) was −0.1896, the “Average Area Under the Viability Curve” value (Hs746T) was −0.2954 and the “Average Area Under the Viability Curve” value (KATO3) was 0.6205. For the same compound, the “Average Area Under the Viability Curve” value (MKN1) was 0, the “Average Area Under the Viability Curve” value (MKN28) was 0.5758 and the “Average Area Under the Viability Curve” value (MKN45) was 0.9516. For the same compound, the “Average Area Under the Viability Curve” value (MKN74) was −1.246, the “Average Area Under the Viability Curve” value (NCC19) was 0.06094 and the “Average Area Under the Viability Curve” value (NCC20) was 0.02059. The “Average Area Under the Viability Curve” value (NCC24) was −0.1464, the “Average Area Under the Viability Curve” value (NCC59) was 1.892 and the “Average Area Under the Viability Curve” value (NCI_N87) was 1.172. For the same compound, the “Average Area Under the Viability Curve” value (OCUM1) was −1.113, the “Average Area Under the Viability Curve” value (SK4) was −0.5339 and the “Average Area Under the Viability Curve” value (SNU16) was 1.525. For the same compound, the “Average Area Under the Viability Curve” value (SNU1750) was −0.4695, the “Average Area Under the Viability Curve” value (SNU1967) was −1.419 and the “Average Area Under the Viability Curve” value (SNU1) was 0.8706. For the same compound, the “Average Area Under the Viability Curve” value (SNU216) was −0.7838, the “Average Area Under the Viability Curve” value (SNU484) was −0.5999 and the “Average Area Under the Viability Curve” value (SNU601) was 3.699. The “Average Area Under the Viability Curve” value (SNU620) was −2.131, the “Average Area Under the Viability Curve” value (SNU638) was −0.9699 and the “Average Area Under the Viability Curve” value (SNU668) was 0.06394. For the same compound, the “Average Area Under the Viability Curve” value (SNU719) was 0.6043, the “Average Area Under the Viability Curve” value (YCC11) was −0.7359 and the “Average Area Under the Viability Curve” value (YCC2) was 0.1163. For the same compound, the “Average Area Under the Viability Curve” value (YCC3) was 0.08342, the “Average Area Under the Viability Curve” value (FU97) was −0.1434 and the AUC value [1] was “high”.
In the case of `COC1=CC(c2cc3ccccc3[nH]2)=N/C1=C\c1[nH]c(C)cc1C` [Obatoclax mesylate (GX15-070), Obatoclax mesylate], the “Average Area Under the Viability Curve” value (AGS) is reported as −0.9005, the “Average Area Under the Viability Curve” value (Hs746T) is reported as 0 and the “Average Area Under the Viability Curve” value (KATO3) is reported as 1.383. For the same compound, the “Average Area Under the Viability Curve” value (MKN1) was 0.7857, the “Average Area Under the Viability Curve” value (MKN28) was −0.3769 and the “Average Area Under the Viability Curve” value (MKN45) was 0.9313. For the same compound, the “Average Area Under the Viability Curve” value (MKN74) was −1.051, the “Average Area Under the Viability Curve” value (NCC19) was 1.604 and the “Average Area Under the Viability Curve” value (NCC20) was −0.9868. For the same compound, the “Average Area Under the Viability Curve” value (NCC24) was 0.2511, the “Average Area Under the Viability Curve” value (NCC59) was 2.5912 and the “Average Area Under the Viability Curve” value (NCI_N87) was 0.636. For the same compound, the “Average Area Under the Viability Curve” value (OCUM1) was 0.1302, the “Average Area Under the Viability Curve” value (SK4) was −1.531 and the “Average Area Under the Viability Curve” value (SNU16) was 1.841. For the same compound, the “Average Area Under the Viability Curve” value (SNU1750) was −0.872, the “Average Area Under the Viability Curve” value (SNU1967) was −0.4093 and the “Average Area Under the Viability Curve” value (SNU1) was 0.5238. For the same compound, the “Average Area Under the Viability Curve” value (SNU216) was −0.1398, the “Average Area Under the Viability Curve” value (SNU484) was −1.4 and the “Average Area Under the Viability Curve” value (SNU601) was 2.791. For the same compound, the “Average Area Under the Viability Curve” value (SNU620) was 0.8129, the “Average Area Under the Viability Curve” value (SNU638) was −0.5094 and the “Average Area Under the Viability Curve” value (SNU668) was −0.2715. For the same compound, the “Average Area Under the Viability Curve” value (SNU719) was 2.585, the “Average Area Under the Viability Curve” value (YCC11) was −0.8407 and the “Average Area Under the Viability Curve” value (YCC2) was −0.5916. For the same compound, the “Average Area Under the Viability Curve” value (YCC3) was 2.281, the “Average Area Under the Viability Curve” value (FU97) was −1.5029 and the AUC value [1] was “high”.
